Assay results taken from PMC6349869, “The palladacycle complex AJ-5 induces apoptotic cell death while reducing autophagic flux in rhabdomyosarcoma cells” (Cell Death Discovery, 2019).

System: SW1353, SW872, SW982, HT1080 and MG-63 cells
Assay: Selectivity index of sarcoma subtype cell lines (MTT)
Assay type: cell-based, human
Conditions: relative to the combined IC50 values for normal fibroblasts (FG0 and DMB); SW1353, SW872, SW982, HT1080, MG-63
Procedure: Cells were seeded in 96-well plates and treated the next day with a range of AJ-5 concentrations (0.1–1.0 μM) or vehicle ([…]) for 48 h. Cell viability was measured using the 3-(4,5-dimethylthiazol-2-yl)-2,5-diphenyl-trazolium bromide (MTT) assay (11465007001; Sigma Aldrich) according to the manufacturer’s instructions. Mean cell viability was calculated as a percentage of the mean vehicle control. At least three independent experiments in quadruplicate were performed from which the half maximal inhibitory concentration (IC50) was determined using GraphPad Prism version 6.0 (GraphPad Software, California, USA). The selectivity index (SI) was determined by dividing the IC50 of a normal cell line by the IC50 of a cancer cell line.
Fig. S2 AJ-5 is cytotoxic in a range of sarcoma subtypes. […] Graphs show mean cell viability as a percentage of vehicle control ± SEM for each concentration of AJ-5 determined from three independent experiments performed in quadruplicate. […] (B) Selectivity indices (SIs) were determined for each cell line by dividing the IC50 of each non-malignant cell line (Fig. 1C) including normal fibroblast cell lines (FG0 and DMB) and mesenchymal stem cell line (A10021501) by the IC50 of each sarcoma cell line. […] Colonies were stained with crystal violet and images from three independent repeats were quantified using the ImageJ plugin ColonyArea. […]

## CC(C)c1cccc(C(C)C)c1[N+]1=Cc2cccc[c]2[Pd-2]1([Cl])[P+](CC[P+](c1ccccc1)(c1ccccc1)[Pd-2]1([Cl])[c]2ccccc2C=[N+]1c1c(C(C)C)cccc1C(C)C)(c1ccccc1)c1ccccc1 (stereo not shown) [AJ-5]
  Selectivity index (SI): > 2
